Measurements as given in paper PMC8744835, “Sterically Hindered Quaternary Phosphonium Salts (QPSs): Antimicrobial Activity and Hemolytic and Cytotoxic Properties” (International Journal of Molecular Sciences, 2021).

Columns and labels:
[1] = system: methicillin-resistant S. aureus MRSA-2; assay: Antimicrobial activity, serial dilution technique in Mueller–Hinton Broth 2; assay type: cell-based, Staphylococcus aureus; conditions: - means non-active
Procedure, shortened: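 Antimicrobial activity against methicillin-susceptible Staphylococcus aureus MRSA-2, a beta-lactam-resistant clinical isolate from a sinusitis patient at the Republican Clinical Hospital (Kazan), was assessed by serial dilution in Mueller–Hinton Broth 2. The inoculum was 3.0 × 10^5 cfu/mL. Cultures were incubated at 37 °C and read every 24 h for 5 days, in three repeat experiments.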

[2] = system: methicillin-resistant S. aureus MRSA-1; assay: as above; assay type: cell-based, Staphylococcus aureus; conditions: - means non-active
Procedure, shortened: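 Antimicrobial activity against methicillin-susceptible Staphylococcus aureus MRSA-1, a hospital isolate from a chronic tonsillitis patient that is resistant to fluoroquinolones and beta-lactams, was determined by serial dilution in Mueller–Hinton Broth 2. The bacterial load was 3.0 × 10^5 cfu/mL, incubation was at 37 °C, and growth was recorded every 24 h for 5 days.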

P. aeruginosa = assay: Zone-of-inhibition test of coated PC+ plastic sample; assay type: cell-based, Pseudomonas aeruginosa; conditions: PC+ sample immersed 1 min in 1% solution of 12a in ethanol, 37 °C 24 h
Method: The inhibition-zone test is a quick and qualitative way to measure the ability of an antimicrobial agent to suppress microbial growth. The sensitivity of the method is quite high and even a small amount of residual biocide in a model system can be detected. […] In this experiment, we used cultures of the bacteria P. aeruginosa and S. aureus. First, the microbial suspension was spread on a sterile agar plate. Then, a plastic sample (PC+), which was preliminarily immersed for 1 min in a 1% solution of compound 12a in ethanol, was placed in the center of the Petri dish with agar. During the incubation period, the inoculum bacteria can only grow where is no antimicrobial agent. If the active agent is washed out of the sample into the environment (in this case, agar), bacterial growth in the area around the sample is suppressed. The width of this area is determined by the diffusion of the active compound in the vicinity. […] From the results obtained, it is clear that a relatively stable surface coating was achieved using a simple experimental procedure.
This sample was tested for possible release of the active compound. Tests were performed on a culture of Gram-negative bacteria P. aeruginosa and Gram-positive bacteria S. aureus. […] Then, Petri dishes were placed in an incubator at 37 °C for 24 h, and the presence of inhibition zones was evaluated.

S. aureus 209 P = assay: Bactericidal properties of coated plastic samples; assay type: cell-based, Staphylococcus aureus; conditions: for CFU/cm^2, Nylon: Nylon plastic
Method: The plastic samples, which were 10 mm × 10 mm × 2 mm, were preliminary sterilized and placed into an ethanolic solution of 12a for 1 min. Then, the studied and control (without coating) samples were immersed in bacterial suspensions with a known concentration of bacteria (10^5–10^8 bacteria/mL) for 24 h, and the number of viable micro-organisms was then estimated.
The plastic samples, which were 10 mm × 10 mm × 2 mm plates, were sterilized in a medical autoclave, HG-50 (Hirayama, Japan), at 121 °C for 20 min. Then, each sample was immersed in an ethanolic solution of compound 12a at concentrations of 0.01 and 0.001% for 1 min and air dried. After treatment, the plastic samples were placed in 24-well plates with 1 sample/well. Then, 1 mL of S. aureus 209 P suspension (10^5 bacteria/mL) was added to each well. The plastic control samples were not treated with compound 12a. The culture of Staphylococcus aureus 209 P was grown for a day at 37 °C in Mueller–Hinton Broth 2. Active daily growing cultures were diluted in physiological saline (NaCl 9.0 g/L) to a concentration of 10^5 bacteria/mL and then distributed into 25-well plates containing 1 cm^2 of coating/well, with the exception of an uncoated control well. After a 24-h incubation period at 37 °C, dilution series were performed for each treatment, and 100 μL volumes of 3 dilutions were plated on sterile Mueller–Hinton agar. After 24 h, the number of colonies on each plate was counted to obtain the corresponding concentration of live bacteria.

[3] = system: Candida albicans ATCC 10231; assay: Fungicidal activity, serial dilution technique; assay type: cell-based; conditions: average of three ± SD, - means non-active
Procedure, shortened: (§1)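 Broth serial dilution in Mueller–Hinton Broth 2 at 3.0 × 10^5 cfu/mL, incubated at 37 °C with growth scored every 24 h for 5 days. MIC taken as lowest concentration inhibiting growth; three repeats.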

[4] = system: Trichophyton mentagrophytes var. gypseum 1773; assay: Fungicidal activity, serial dilution technique; assay type: cell-based; conditions: Tm; average of three ± SD; - means non-active
Procedure, shortened: as §1

Structure (SMILES): CCCCCCCCCCCC[P+](C(C)(C)C)(C(C)(C)C)C(C)(C)C [Compound 12a, tri-tert-butyl(n-dodecyl)phosphonium]
- Minimum Bactericidal and Fungicidal Concentration (MBC, MFC), MRSA-2 ([1]; MRSA-2): 7.8 ± 0.6 µg/mL
- MIC ([1]; Staphylococcus aureus, MRSA, MRSA-2 (resistant to beta-lactams), read-out: Minimum Inhibitory Concentration (MIC), MRSA-2): 0.5 ± 0.03 µg/mL
- Minimum Inhibitory Concentration (MIC), MRSA-1 ([2]; MRSA-1 (resistant to fluoroquinolones and beta-lactams)): 0.5 ± 0.03 µg/mL
- MBC ([2]; Staphylococcus aureus, MRSA, MRSA-1, read-out: Minimum Bactericidal and Fungicidal Concentration (MBC, MFC), MRSA-1): 0.5 ± 0.04 µg/mL
- zone of inhibition (P. aeruginosa): no zones of inhibition
- bacterial growth on coated plastic (S. aureus 209 P; 12a at a concentration of 0.01%, ABS, PLA natural and PETG plastics): complete absence of bacterial growth
- CFU/cm^2, ABS (S. aureus 209 P; ABS plastic, 12a 0.001%, 24 h incubation with 10^5 S. aureus 209 P): 2.5 × 10^3 CFU/cm^2
- CFU/cm^2, Nylon (S. aureus 209 P; 12a 0.001%, 24 h incubation with 10^5 S. aureus 209 P): 3.2 × 10^4 CFU/cm^2
- CFU/cm^2, Nylon (S. aureus 209 P; 12a 0.01%, 24 h incubation with 10^5 S. aureus 209 P): 2.0 × 10^2 CFU/cm^2
- CFU/cm^2, PC+ (S. aureus 209 P; PC+ plastic, 12a 0.001%, 24 h incubation with 10^5 S. aureus 209 P): 1.2 × 10^4 CFU/cm^2
- CFU/cm^2, PETG (S. aureus 209 P; PETG plastic, 12a 0.001%, 24 h incubation with 10^5 S. aureus 209 P): 1.8 × 10^3 CFU/cm^2
- decrease of bacterial cell concentration compared to the control (S. aureus 209 P; PETG, 12a 0.001%): 27 times
- CFU/cm^2, PLA Natural (S. aureus 209 P; PLA Natural plastic, 12a 0.001%, 24 h incubation with 10^5 S. aureus 209 P): 5.0 × 10^3 CFU/cm^2
- CFU/cm^2, PLA+ (S. aureus 209 P; PLA+ plastic, 12a 0.001%, 24 h incubation with 10^5 S. aureus 209 P): 1.6 × 10^4 CFU/cm^2
- Minimum Bactericidal and Fungicidal Concentration (MBC, MFC), Ca ([3]; Ca): 31.3 ± 2.7 µg/mL
- MIC ([3]; Candida albicans, ATCC10231, Ca, read-out: Minimum Inhibitory Concentration (MIC), Ca): 15.6 ± 1.4 µg/mL
- Minimum Bactericidal and Fungicidal Concentration (MBC, MFC), Tm [4]: 15.6 ± 1.3 µg/mL
- Minimum Inhibitory Concentration (MIC), Tm [4]: 15.6 ± 1.2 µg/mL
